Experiment [1] deals with T1, serotonin reuptake (5HT uptake) (Rattus norvegicus, UniProt P31652).
T1 construct: These vesicular particles were isolated from the hypothalamus of male rats' brains for 5HT uptake; from tissue; host or cells: rat brain synaptosomes (P2 fraction; cerebral cortex / hypothalamus of male rats)
Kind of experiment: Serotonin reuptake inhibition (5HT uptake inhibition) in rat brain synaptosomes. It is filed as biochemical. Particulars: synaptosomes from male rats' brains. From the text: a) Tests on Serotonin Reuptake Inhibition
In order to be able to carry out these in vitro studies, synaptosomes from rats' cerebral cortices were freshly isolated. A “P2” fraction prepared according to Gray and Whittaker's instructions (E. G. Gray and V. P. Whittaker (1962) J. Anat. 76, 79-88) was used in each case. These vesicular particles were isolated from the hypothalamus of male rats' brains for 5HT uptake.
A detailed description of the method may be found in the literature (M. Ch. Frink, H.-H. Hennies, W. Englberger, M. Haurand and B. Wilffert (1996) Arzneim.-Forsch./Drug Res. 46 (III), 11, 1029-1036).

The target in experiment [2] is T2, noradrenalin reuptake (NA uptake) (Rattus norvegicus, UniProt Q9WTR4).
T2 construct: These vesicular particles were isolated from the hypothalamus of male rats' brains for NA uptake; from tissue; host or cells: rat brain synaptosomes (P2 fraction; cerebral cortex / hypothalamus of male rats)
T2 sequence (Q9WTR4 1-597): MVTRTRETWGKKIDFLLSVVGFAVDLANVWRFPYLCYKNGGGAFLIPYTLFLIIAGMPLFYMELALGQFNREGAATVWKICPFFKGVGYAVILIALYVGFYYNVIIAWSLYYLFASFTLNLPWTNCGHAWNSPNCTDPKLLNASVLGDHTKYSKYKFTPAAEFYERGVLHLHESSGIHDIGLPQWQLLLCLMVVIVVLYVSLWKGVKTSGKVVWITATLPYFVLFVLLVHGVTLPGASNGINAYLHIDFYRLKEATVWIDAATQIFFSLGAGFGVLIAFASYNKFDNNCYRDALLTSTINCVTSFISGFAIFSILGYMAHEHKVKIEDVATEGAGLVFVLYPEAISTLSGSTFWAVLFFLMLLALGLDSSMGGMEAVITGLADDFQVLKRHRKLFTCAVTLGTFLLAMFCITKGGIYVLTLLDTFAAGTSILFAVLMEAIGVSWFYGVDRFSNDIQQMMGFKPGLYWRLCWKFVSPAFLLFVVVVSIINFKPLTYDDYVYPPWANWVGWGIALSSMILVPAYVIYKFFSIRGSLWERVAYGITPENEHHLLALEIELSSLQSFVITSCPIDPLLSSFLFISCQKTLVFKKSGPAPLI
Kind of experiment: Noradrenalin reuptake inhibition (NA uptake inhibition) in rat brain synaptosomes. It is filed as biochemical. Particulars: synaptosomes from male rats' brains. From the text:
b) Tests on Noradrenalin Reuptake Inhibition
In order to be able to carry out these in vitro studies, synaptosomes from rats' cerebral cortices were freshly isolated. A “P2” fraction, prepared according to Gray and Whittaker's instructions (E. G. Gray and V. P. Whittaker (1962) J. Anat. 76, 79-88) was used in each case. These vesicular particles were isolated from the hypothalamus of male rats' brains for NA uptake.
A detailed description of the method may be found in the literature (M. Ch. Frink, H.-H. Hennies, W. Englberger, M. Haurand and B. Wilffert (1996) Arzneim.-Frosch./Drug Res. 46 (III), 11, 1029-1036).

The test system of experiment [3] is binding site 2 of the sodium channel (batrachotoxin (BTX) binding site). Kind of experiment: Binding test on the sodium channel, binding site 2 (BTX bond), [3H]-batrachotoxinin A20 α-benzoate as ligand. Details: species or system rat. The following applies: 10 μM; rat cerebrocortex synaptosomes; ligand 10 nM; 25° C., 120 min.

The values below come from patent US7368470B2, “Substituted 3-pyrrolidine-indole derivatives” (Gruenenthal GmbH, priority 2003, dated 2008).

T1 sequence (P31652 whole entry): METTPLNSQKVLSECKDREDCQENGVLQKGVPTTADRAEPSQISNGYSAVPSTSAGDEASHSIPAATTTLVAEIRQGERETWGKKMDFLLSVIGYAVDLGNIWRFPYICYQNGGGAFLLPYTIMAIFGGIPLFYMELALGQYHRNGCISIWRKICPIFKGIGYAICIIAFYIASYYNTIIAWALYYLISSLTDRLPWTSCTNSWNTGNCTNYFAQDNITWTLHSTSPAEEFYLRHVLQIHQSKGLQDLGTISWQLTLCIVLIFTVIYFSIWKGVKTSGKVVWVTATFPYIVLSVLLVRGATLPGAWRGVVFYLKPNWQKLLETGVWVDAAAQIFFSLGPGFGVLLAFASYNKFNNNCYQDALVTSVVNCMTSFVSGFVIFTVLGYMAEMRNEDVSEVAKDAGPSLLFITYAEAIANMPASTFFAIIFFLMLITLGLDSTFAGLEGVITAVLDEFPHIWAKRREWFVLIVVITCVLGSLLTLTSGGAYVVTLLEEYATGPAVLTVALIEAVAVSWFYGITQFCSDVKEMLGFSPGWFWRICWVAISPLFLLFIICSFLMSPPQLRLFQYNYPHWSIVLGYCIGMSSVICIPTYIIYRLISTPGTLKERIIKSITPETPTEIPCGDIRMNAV

In the case of `Cc1nc(C(F)(F)F)ccc1C(=O)N1CCC(c2cn(Cc3cccc(F)c3)c3ccccc23)C1` (stereo not drawn) [Compound 42, {3-[1-(3-fluoro-benzyl)-1H-indol-3-yl]-pyrrolidin-1-yl}-(2-methyl-6-trifluoromethyl-pyridin-3-yl)-methanone], the inhibition at 10 µM in experiment [1] was 82%; in experiment [2] it was 58%. Besides, in experiment [3], the “BTX bond, % inhibition [10 μM]” value was found to be 96%.

Turning to `CCn1cc(C2CCN(C(=O)CCc3ccccc3)C2)c2ccccc21` (stereo not drawn) [Compound 35, 1-[3-(1-ethyl-1H-indol-3-yl)-pyrrolidin-1-yl]-3-phenyl-propan-1-one], the inhibition at 10 µM in experiment [1] turned out to be 68%; in experiment [2] it was 48%. Besides, in experiment [3], the “BTX bond, % inhibition [10 μM]” value is reported as 84%.

Take `O=C(c1ccc([N+](=O)[O-])cc1Cl)N1CCC(c2cn(Cc3ccc(C(F)(F)F)cc3)c3ccccc23)C1` (stereo not drawn) [Compound 39]: the “5HT uptake, % inhibition [10 μM]” value in experiment [1] turned out to be 43%. Also, the “NA-uptake, inhibition [10 μM]” value in experiment [2] amounted to 41. In experiment [3], the “BTX bond, % inhibition [10 μM]” value is 90%.

In the case of `Cn1cc(C2CCN(C(=O)c3ccc(-c4ccccc4)cc3)C2)c2ccccc21` (stereo not drawn) [Compound 45, Biphenyl-4-yl-[3-(1-methyl-1H-indol-3-yl)-pyrrolidin-1-yl]-methanone], the inhibition at 10 µM in experiment [1] was found to be 80%; in experiment [2], 43%. The “BTX bond, % inhibition [10 μM]” value in experiment [3] is on record as 82%.
